This is an account of results in US8618111B2, “5-alkynyl-pyrimidines” (Boehringer Ingelheim International GmbH, priority 2010, dated 2013).

The subject of assay [1] is U87MG human glioblastoma cell line. As to the kind of experiment: CyQuant assay in U87MG cells. To be noted: U-87 MG, 72 h, 3 days incubation. The assay is classed as cell-based. Here is the method:
CyQuant Assay in U87MG Cells
3. […] Evaluation • Calculate EC50 using GraphPad Prism (Fifty)

For assay [2], the target named is PI3Kalpha (Homo sapiens (Human), UniProt P42336). As to the kind of experiment: Inhibition of PI3Kalpha-induced PIP-2 phosphorylation (filter-binding assay). The assay is classed as biochemical. To be noted: 33P-ATP. The protocol:
Inhibition of PI3Kalpha-Induced PIP-2 Phosphorylation
Method Type: Filter-Binding-Assay
Aliquoted in desired amounts and stored at −80° C. Final assay concentration 25 ng/well.

In assay [3] the target is mTOR (Homo sapiens (Human), UniProt P42345). As to the kind of experiment: mTOR kinase activity assay (phosphorylation status of mTOR substrate 4E-BP1; TR-FRET). The assay is classed as biochemical. The following applies: GFP-4E-BP1 substrate, 8 μM ATP.
Chain of mTOR (P42345 1360-2549): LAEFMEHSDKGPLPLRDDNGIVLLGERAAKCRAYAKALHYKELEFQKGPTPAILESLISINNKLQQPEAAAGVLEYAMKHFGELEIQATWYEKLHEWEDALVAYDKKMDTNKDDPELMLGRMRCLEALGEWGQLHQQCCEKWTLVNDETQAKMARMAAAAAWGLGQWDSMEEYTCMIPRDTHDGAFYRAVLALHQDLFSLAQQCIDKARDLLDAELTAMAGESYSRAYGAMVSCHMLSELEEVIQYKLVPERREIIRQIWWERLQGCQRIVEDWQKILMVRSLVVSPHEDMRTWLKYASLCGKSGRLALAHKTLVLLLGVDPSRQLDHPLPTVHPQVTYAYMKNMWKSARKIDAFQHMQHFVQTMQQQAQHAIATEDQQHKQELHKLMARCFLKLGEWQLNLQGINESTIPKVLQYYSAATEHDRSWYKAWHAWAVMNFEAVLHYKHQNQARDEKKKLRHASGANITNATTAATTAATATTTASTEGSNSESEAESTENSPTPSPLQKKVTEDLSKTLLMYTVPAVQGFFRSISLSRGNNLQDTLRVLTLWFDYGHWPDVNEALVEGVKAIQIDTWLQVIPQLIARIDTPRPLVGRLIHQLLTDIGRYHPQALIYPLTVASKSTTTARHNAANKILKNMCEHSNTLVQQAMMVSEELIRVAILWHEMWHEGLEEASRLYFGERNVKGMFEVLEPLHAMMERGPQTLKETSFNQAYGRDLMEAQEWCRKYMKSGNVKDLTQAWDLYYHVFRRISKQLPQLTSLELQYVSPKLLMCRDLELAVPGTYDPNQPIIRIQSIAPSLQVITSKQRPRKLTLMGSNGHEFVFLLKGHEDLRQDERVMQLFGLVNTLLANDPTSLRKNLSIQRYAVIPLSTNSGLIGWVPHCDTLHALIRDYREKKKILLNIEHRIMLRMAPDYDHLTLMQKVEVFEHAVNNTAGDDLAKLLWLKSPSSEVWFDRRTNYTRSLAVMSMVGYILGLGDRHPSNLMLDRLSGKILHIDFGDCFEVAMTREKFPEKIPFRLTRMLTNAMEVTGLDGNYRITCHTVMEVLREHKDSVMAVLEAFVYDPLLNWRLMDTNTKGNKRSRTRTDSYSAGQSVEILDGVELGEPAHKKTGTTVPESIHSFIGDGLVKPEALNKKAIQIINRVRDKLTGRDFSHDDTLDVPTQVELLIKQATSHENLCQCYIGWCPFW

Chain of PI3Kalpha (P42336 whole entry, species assumed): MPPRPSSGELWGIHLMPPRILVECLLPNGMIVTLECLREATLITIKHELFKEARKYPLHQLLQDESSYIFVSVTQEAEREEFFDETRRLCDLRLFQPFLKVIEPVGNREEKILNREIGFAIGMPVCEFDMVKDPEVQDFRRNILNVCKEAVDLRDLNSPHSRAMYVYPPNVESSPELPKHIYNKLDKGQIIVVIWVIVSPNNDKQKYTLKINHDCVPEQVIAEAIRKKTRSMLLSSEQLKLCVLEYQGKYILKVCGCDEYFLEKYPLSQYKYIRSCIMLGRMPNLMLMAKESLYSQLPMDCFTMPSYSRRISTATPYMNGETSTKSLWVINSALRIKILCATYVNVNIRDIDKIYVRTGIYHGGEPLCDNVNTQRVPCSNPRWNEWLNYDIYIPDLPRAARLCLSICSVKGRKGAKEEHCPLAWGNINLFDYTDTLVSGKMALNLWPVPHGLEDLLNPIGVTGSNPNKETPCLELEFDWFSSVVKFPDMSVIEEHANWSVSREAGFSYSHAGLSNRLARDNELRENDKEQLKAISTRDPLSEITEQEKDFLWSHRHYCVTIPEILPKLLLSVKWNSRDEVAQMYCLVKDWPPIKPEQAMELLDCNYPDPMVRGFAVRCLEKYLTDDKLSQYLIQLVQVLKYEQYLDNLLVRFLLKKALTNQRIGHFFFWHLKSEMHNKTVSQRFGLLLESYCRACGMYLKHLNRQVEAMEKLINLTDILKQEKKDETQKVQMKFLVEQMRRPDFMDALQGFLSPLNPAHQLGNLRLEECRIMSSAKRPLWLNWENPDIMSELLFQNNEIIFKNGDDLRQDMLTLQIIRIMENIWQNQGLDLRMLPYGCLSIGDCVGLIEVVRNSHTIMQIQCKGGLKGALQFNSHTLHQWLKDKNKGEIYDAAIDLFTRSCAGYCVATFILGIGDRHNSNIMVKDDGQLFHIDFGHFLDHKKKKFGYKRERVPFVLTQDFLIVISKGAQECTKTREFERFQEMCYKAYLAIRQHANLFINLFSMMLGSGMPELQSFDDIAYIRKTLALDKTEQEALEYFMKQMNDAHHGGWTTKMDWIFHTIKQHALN
Chain of PI3Kalpha (P27986 whole entry partner, species assumed): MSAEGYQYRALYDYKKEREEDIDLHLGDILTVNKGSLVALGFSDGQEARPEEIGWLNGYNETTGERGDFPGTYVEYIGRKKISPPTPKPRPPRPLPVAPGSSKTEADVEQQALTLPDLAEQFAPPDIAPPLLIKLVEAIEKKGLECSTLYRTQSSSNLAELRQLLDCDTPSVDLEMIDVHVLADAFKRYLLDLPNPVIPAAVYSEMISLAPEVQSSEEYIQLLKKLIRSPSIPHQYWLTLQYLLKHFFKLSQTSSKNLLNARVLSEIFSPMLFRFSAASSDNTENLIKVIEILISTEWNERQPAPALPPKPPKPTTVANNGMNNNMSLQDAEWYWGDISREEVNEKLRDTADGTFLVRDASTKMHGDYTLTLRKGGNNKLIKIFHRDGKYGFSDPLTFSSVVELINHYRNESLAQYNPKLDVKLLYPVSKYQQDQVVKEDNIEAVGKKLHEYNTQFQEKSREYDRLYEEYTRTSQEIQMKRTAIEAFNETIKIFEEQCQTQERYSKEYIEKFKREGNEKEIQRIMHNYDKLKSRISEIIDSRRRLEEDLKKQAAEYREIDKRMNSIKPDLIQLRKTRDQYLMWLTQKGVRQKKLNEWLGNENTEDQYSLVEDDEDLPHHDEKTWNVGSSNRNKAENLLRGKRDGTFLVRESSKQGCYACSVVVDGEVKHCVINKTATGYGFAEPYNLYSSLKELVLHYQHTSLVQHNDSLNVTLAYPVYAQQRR

On to `CCc1ncnc(N2CCCCC2)c1C#Cc1ccc(NC)nc1` [Example H-1], for which the EC50 in assay [1] stood at 745 nM. For the same compound, in assay [2], the “IC50 PI3Ka” value worked out at 214 nM. Besides, the IC50 in assay [3] worked out at 55 nM.
